The text below walks through data of patent publication US7737183B2, “β-amyloid and neurofibrillary tangle imaging agents” (The Regents of the University of California, priority 2006, dated 2010).

Data set [1] addresses T1, β-amyloid plaques (Homo sapiens, UniProt P05067). In words: In vitro autoradiographic binding to Tg2576 mouse hippocampal brain slices. Details: representative of the amount of Aβ40 and Aβ42 plaque aggregates; from tissue; host or cells: hippocampal brain slices of 24-month old Tg2576 transgenic mice; species or system Tg2576 transgenic mice. To be noted: for ratio of binding in plaque to non-plaque areas within the same slice: 10 μm hippocampal slice of 24-month old Tg2576 mouse. As for the experimental part: (§1) In vitro studies of ^18F-FBM were carried out on coronal and horizontal mice brain slices (both wild-type and Tg 2576), which were obtained on a Leica 1850 cryotome. Mice brain-region slices (hippocampus and frontal cortex of 24-month old wild-type and Tg 2576; 10 μm thick) were preincubated in buffer (0.9% saline) for 10 minutes. Subsequently, the mice brain slices were incubated with ^18F-FBM (6.8 μCi/cc) in 0.9% saline, pH 7.4 at 37° C. for 1 hr. For nonspecific binding, brain slices were treated with 10 μM FDDNP. Slices were washed with cold millipore water, 70% alcohol, 90%, alcohol, 70% alcohol, and water for 2, 1, 1, 1, and 1 min, respectively. The slices were air dried then exposed overnight onto a phosphor screen and read by the Phosphor Autoradiographic Imaging System/Cyclone Storage Phosphor System (Packard Instruments Co). Regions of interest were drawn on various regions of the slices and the extent of binding of ^18F-FBM was computed as DLU/mm^2 using the OptiQuant acquisition and analysis program (Packard Instruments Co).
(§2) Similar experiments were carried out in adjacent slices using ^18F-FDDNP (7.8 μCi/cc) for comparison. For evaluating the amount of plaque present in the brain slices, adjacent brain slices were also stained for the peptide fragment Aβ17-24 which is representative of the amount of Aβ40 and Aβ42 plaque aggregates using reported 4G8 immunostaining methods of UCI-Institute for Brain Aging and Dementia (Head E, Moffat K, Das P, Sarsoza E, Poon W W, Landsberg G, Cotman C W, Muphy M P. (2005). Beta-amyloid deposition and tau phosphorylation in clinically characterized aged cats. Neurobiology of Aging 26(5): 749-763). Beta-amyloid deposition and tau phosphorylation in clinically characterized aged cats. Neurobiology of Aging 26(5): 749-763).
Hippocampal slice of 24-month old transgenic mouse (Tg2576, transgenic mice expressing mutant APP) stained for Aβ17-24 using 4G8 immunostaining confirmed presence of β-amyloid plaques found in Alzheimer's disease (FIGS. 1A and 2A depicting 10 μm thick horizontal hippocampal slice of 24-month old transgenic mouse (Tg2576) stained for Aβ17-24 using 4G8 immunostaining. Arrow indicates amyloid plaques.). Adjacent hippocampal slices radiolabeled with ^18F-FBM and ^18F-FDDNP indicated binding to amyloid plaques and corresponded to the 4G8 stain (FIGS. 1B and 2B depicting adjacent hippocampal slice shown in (A) but radiolabeled with high-specific activity ^18F-FBM or ^18F-FDDNP. Arrow indicates binding of ^18F-FBM or ^18F-FDDNP to the amyloid plaques and corresponds to the 4G8 stain.). The specific binding to amyloid plaques was reduced in the presence of 10 μM FDDNP (FIGS. 1C and 2C; FIG. 1C depicts adjacent hippocampal slice shown in (B) radiolabeled with high-specific activity ^18F-FBM in the presence of 10 μM FDDNP. Specific binding to regions containing plaques is reduced; and FIG. 2C depicts adjacent hippocampal slice in cold FDDNP. Specific binding to plaque regions is reduced). Alcohol was used for washing the medium to remove nonspecific binding. The ratio of binding in plaque to non-plaque areas within the same slice for ^18F-FBM was 2.1 while that for ^18F-FDDNP was 1.4; and in the presence of 10 μM FDDNP, these ratios went down to 1.6 and 1.2, respectively.

Data set [2] is described as follows: Relative lipophilicity from reverse-phase HPLC elution order. To be noted: elutes first. Type of data set: physicochemical. As for the experimental part: For the radiosynthesis step, high specific activity ^18F-fluoride (approximately 100 milliCurie) was produced in the MC-17 cyclotron. Fluorine-18 radioactivity count was measured in a Capintec dose calibrator, while low-level counts were measured out in a well-counter (Cobra Quantum, Packard Instruments Co). Direct radiolabeling of the tosylate precursor was done by using ^18F-fluoride in a solution of 19 mg of Kryptofix 2.2.2 and 0.75 mg potassium carbonate in acetonitrile. The mixture was heated at 85° C. for 20 minutes. After cooling, the mixture was transferred onto a neutral alumina Sep-Pak Cartridge to remove unreacted ^18F-fluoride. Chromatographic separations were preformed on semi-preparative reverse-phase C18 column (length=[…], ID=4.6 mm) using the Gilson high performance liquid chromatography (HPLC) systems. Decay-corrected radiochemical yield was approx. 20%. Retention time of ^18F-FBM was 14 mins compared to 15.7 mins for ^18F-FDDNP (for separation protocol, see e.g., Agdeppa E D et al. (2001) Binding Characteristics of Radiofluorinated 6-Dialkylamino-2-Naphthylethylidene Derivatives as Positron Emission Tomography Imaging Probes for Beta-Amyloid Plaques in Alzheimer's Disease. The Journal of Neuroscience 21, 1-5). ^18F-FBM was collected and prepared for in vitro binding studies. […]

Data set [3] deals with senile plaques and neurofibrillary tangles. In words: In vitro autoradiographic binding to triple transgenic mouse sagittal brain slices. Details: species or system triple transgenic mice. To be noted: for selectivity of binding to the plaques: triple transgenic mice brain slices. As to the method:
as §1, §2
Sagittal brain slices of 18 month old triple transgenic mice were then studied. These mice have been known to have an extensive amount of senile plaques and neurofibrillary tangles accumulation in several regions of the brain. These regions include the hippocampus, cortex, thalamus, brain stem and other regions. Binding of ^18F-FBM and ^18F-FDDNP to 10 micron thick slices of triple transgenic mice brains is depicted in FIG. 3 along with antibody staining for plaques. More specifically, FIG. 3A depicts antibody staining in the hippocampus and frontal cortex regions, which was also confirmed by thioflavin S staining in an adjacent slice (shown in inset in FIG. 3A). […] Regions of the hippocampus and the frontal cortex (arrows pointing) that contain the plaques are clearly evident.
The binding of ^18F-FBM in the various plaque containing regions was also quantitatively evaluated as a ratio plot shown in FIGS. 4A and 4B. Cerebellum and striatum were used as reference regions. […] The ratio between the frontal cortex regions showing plaques was between 6 and 7 while the hippocampus was between 3.5 and 4.5 as can be taken from FIG. 4A. […] On the other hand, in the case of ^18F-FDDNP, the binding ratios with respect to cerebellum were 1.5 and 2.0 as can be taken from FIG. 4B.

Data set [4] addresses T1, β-amyloid plaques. In words: In vitro autoradiographic binding of 18F-FPCUR to transgenic mice brain slices. Details: from tissue; host or cells: sagittal brain sections of Tg 2576 and 3×Tg transgenic mice, 1 to 24 months; species or system transgenic mice (Tg 2576 and 3×Tg). As for the experimental part: Preliminary binding to rat brain slices of ^18F-fluoropropyl curcumin was carried out at 37° C. in Tris buffer, 50 mM, pH 7.4 for one hour, and further testing of ^18F-FPCUR for binding to β-amyloid plaques was carried out transgenic mice brains. […] Brain slices were pre-incubated for 10 mins in incubation buffer, 0.1 M Tris, 0.1 M NaCl, 0.5% Tween and 0.1% BSA, pH 7.4. Incubation was carried out in 0.1 M Tris, 0.1 M NaCl, 0.5% Tween and 0.1% BSA, pH 7.4 with ^18F-FPCUR (3 μCi/cc) at 37° C. for 1 hr. […] Slices were washed with cold buffer, 2×2 min, rinsed with cold water and air dried. Autoradiograms were obtained of various slices and binding of ^18F-FPCUR was quantitated using Optiquant Image analysis program. […] For evaluating the amount of plaque present in the brain slices, adjacent brain slices were also stained using reported immunostaining methods.

Values joined by “and” are separate entries in the source; they are usually repeats but may differ in a detail not shown here. Identical values can stand only once.

T1 sequence (P05067 672-713 limits assumed): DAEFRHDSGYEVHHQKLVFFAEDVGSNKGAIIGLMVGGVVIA

Turning to `CC(/C=C/c1ccc(N(C)CC[18F])cc1)=C(C#N)C#N` [18F-FBM, 4′-[(2-[^18F]fluoroethyl)(methyl)amino]-4-phenyl-3-buten-2-malonitrile], the “ratio of binding in plaque to non-plaque areas within the same slice” value was found to be 1.6 at β-amyloid plaques [1] (in the presence of 10 μM FDDNP) and 2.1 on β-amyloid plaques [1] (no competitor). For the same compound, at β-amyloid plaques [1] (Tg2576 hippocampal slices), the “specific binding to amyloid plaque regions compared to 18F-FDDNP” value is “higher specific binding”. In addition, the “lipophilicity relative to 18F-FDDNP” value in data set [2] is “less lipophilic”. The “selectivity of binding to the plaques” value in data set [3] is “selective binding”.

Take `CC(=C(C#N)C#N)c1ccc2cc(N(C)CC[18F])ccc2c1` [18F-FDDNP, 2-(1-{6-[(2-[^18F]fluoroethyl)(methyl)amino]-2-naphtyl}ethylidene)malonitrile]: the entries for the “ratio of binding in plaque to non-plaque areas within the same slice” value at β-amyloid plaques [1] (in the presence of 10 μM FDDNP) and at β-amyloid plaques [1] (no competitor) were 1.2 and 1.4, respectively. Moreover, in data set [3] (18 month old triple transgenic mice, FIG. 4B), the “binding ratios with respect to cerebellum” value was 1.5 and 2.0. The “selectivity of binding to the plaques” value in data set [3] is “less selective”. For the same compound, the “binding in the cerebellum (no significant amount of plaques)” value in data set [3] (triple transgenic mice, FIG. 3D) is on record as “significant amount of binding”.

As for `COc1cc(/C=C/C(=O)CC(=O)/C=C/c2ccc(OCCC[18F])c(OC)c2)ccc1O` [18F-FPCUR, ^18F-fluoropropylcurcumin], the “binding in the cerebellum (CB)” value on β-amyloid plaques [4] (FIG. 7) is given as “little binding”. In addition, the “binding in older transgenic mice” value at β-amyloid plaques [4] (older transgenic mice) is reported as “Increased binding”.

With `COc1cc(/C=C/C(=O)CC(=O)/C=C/c2ccc(O)c(OC)c2)ccc1O` [Curcumin], the “displacement of 18F-FPCUR binding by competitor” value at β-amyloid plaques [4] (10 μM competitor) is “displaced”.

With `CC(C=Cc1ccc(N(C)CCF)cc1)=C(C#N)C#N` [FBM], the “effect of competitor on binding of 18F-FDDNP in the hippocampus” value in data set [3] (FBM (1 mM), FIG. 3F) was “reduced”.

On to `CC(=C(C#N)C#N)c1ccc2cc(N(C)CCF)ccc2c1` [FDDNP], for which the “effect of competitor on selective binding of 18F-FBM to plaque regions” value in data set [3] (1 μM FDDNP, FIG. 3E) was “significantly reduced”.
